Literature values as cited in publication PMC6311893, “Computational prediction of plasma protein binding of cyclic peptides from small molecule experimental data using sparse modeling techniques” (BMC Bioinformatics, 2018).
Read-outs that look alike come from different tables or passages of the source.

System: plasma protein
Conditions: cited from earlier work
[1] = fraction bound to plasma protein, small molecule dataset, sheet 1-SM, Set Dtr, ref Ingle et al.
[2] = fraction bound to plasma protein, small molecule dataset, sheet 1-SM (Set Dte = test, Dtr = training), ref Ingle et al.
[3] = fraction bound to plasma protein, small molecule dataset, sheet 1-SM, ref Ingle et al.

Compound: CN(Cc1cnc2nc(N)nc(N)c2n1)c1ccc(C(=O)N[C@@H](CCC(=O)O)C(=O)O)cc1 [Methotrexate]
- PPB (fb) [1]: 0.58

Compound: Cc1onc(-c2ccccc2)c1-c1ccc(S(N)(=O)=O)cc1 [valdecoxib]
- PPB (fb) [1]: 0.98

Compound: CC(=O)Nc1ccc(/C=N/NC(N)=S)cc1 [amithiozone]
- PPB (fb) [2]: 0.95

Compound: COc1cc(OC)c(C(=O)CCCN2CCCC2)c(OC)c1 [Buflomedil]
- PPB (fb) [1]: 0.6

Compound: Cc1c(C)c2c(c(C)c1O)CCC(C)(COc1ccc(CC3SC(=O)NC3=O)cc1)O2 (stereo not drawn) [troglitazone]
- PPB (fb) [1]: 0.99

Compound: O=C(O)c1cc(O)c(O)c(O)c1 [gallic acid]
- PPB (fb) (plasma): 0.32

Compound: CC(C)Nc1cccnc1N1CCN(C(=O)c2cc3cc(NS(C)(=O)=O)ccc3[nH]2)CC1 [delavirdine]
- PPB (fb) [2]: 0.98

Compound: CC(C(=O)O)c1ccc(C(=O)c2cccs2)cc1 (stereo not drawn) [Suprofen]
- PPB (fb) [3]: 0.99

Compound: C[C@]12C=CC(=O)C=C1CC[C@@H]1[C@@H]2[C@@H](O)C[C@@]2(C)[C@H]1CC[C@]2(O)C(=O)CO [Prednisolone]
- PPB (fb) [1]: 0.81

Compound: C[C@@H]1CCC[C@H](C)N1NC(=O)c1ccc(Cl)c(S(N)(=O)=O)c1 [clopamide]
- PPB (fb) [2]: 0.5

Compound: CC(=O)C1CCC2C3CC=C4CC(O)CCC4(C)C3CCC12C (stereo not drawn) [Pregnenolone]
- PPB (fb) [3]: 0.8

Compound: Cc1cccc(C)c1OCC(=O)N[C@@H](Cc1ccccc1)[C@@H](O)C[C@H](Cc1ccccc1)NC(=O)[C@H](C(C)C)N1CCCNC1=O [lopinavir]
- PPB (fb) [2]: 0.99

Compound: CN(C)CCN(C)N1C=C(c2ccccc2)C2C=CC=CC21 (stereo not drawn) [Binedaline]
- PPB (fb) [2]: 0.96

Compound: ClC1=C(Cl)[C@]2(Cl)[C@@H]3[C@@H]4C[C@@H]([C@H]5O[C@@H]45)[C@@H]3[C@@]1(Cl)C2(Cl)Cl [dieldrin]
- PPB (fb) (plasma): 0.99

Compound: CCN[C@H]1C[C@H](C)S(=O)(=O)c2sc(S(N)(=O)=O)cc21 [dorzolamide]
- PPB (fb) [2]: 0.3

Compound: CCCCc1nc(Cl)c(CO)n1Cc1ccc(-c2ccccc2-c2nn[nH]n2)cc1 [Losartan]
- PPB (fb) [1]: 0.99

Compound: Tigecycline
- PPB (fb) (plasma): 0.8

Compound: CCC(C)C1(CC)C(=O)NC(=O)NC1=O (stereo not drawn) [secbutabarbital]
- PPB (fb) (plasma): 0.26

Compound: CCCCC1C(=O)N(c2ccccc2)N(c2ccc(O)cc2)C1=O (stereo not drawn) [oxyphenbutazone]
- PPB (fb) [3]: 0.99

Compound: CCOC(=O)c1c(CSc2ccccc2)n(C)c2cc(Br)c(O)c(CN(C)C)c12 [arbidol]
- PPB (fb) [2]: 0.91

Compound: Nc1nc(/C(=N/O)C(=O)N[C@@H]2C(=O)N3C(C(=O)O)=C(/C=C4\CCN([C@@H]5CCNC5)C4=O)CS[C@H]23)ns1 [Ceftobiprole]
- PPB (fb) [1]: 0.38

Compound: NC(=O)C[S+]([O-])C(c1ccccc1)c1ccccc1 (stereo not drawn) [modafinil]
- PPB (fb) (plasma): 0.6

Compound: C[C@]12CC[C@H](O)C[C@H]1CC[C@@H]1[C@@H]2CC[C@]2(C)[C@@H](C3=CC(=O)OC3)CC[C@]12O [Digitoxigenin]
- PPB (fb) (plasma): 0.93

Compound: NCC(CC(=O)O)c1ccc(Cl)cc1 (stereo not drawn) [baclofen]
- PPB (fb) [2]: 0.3

Compound: CC[C@H]1OC(=O)[C@H](C)[C@@H](O[C@H]2C[C@@](C)(OC)[C@@H](O)[C@H](C)O2)[C@H](C)[C@@H](O[C@@H]2O[C@H](C)C[C@H](N(C)C)[C@H]2O)[C@](C)(O)C[C@@H](C)CN(C)[C@H](C)[C@@H](O)[C@]1(C)O [Azithromycin]
- PPB (fb) [1]: 0.23

Compound: Nisoldipine
- PPB (fb) (plasma): 1

Compound: N#CC(CCN1CCC(C(N)=O)(N2CCCCC2)CC1)(c1ccccc1)c1ccccc1 [Piritramide]
- PPB (fb) (plasma): 0.94

Compound: C[C@]1(Cn2ccnn2)[C@H](C(=O)O)N2C(=O)C[C@H]2S1(=O)=O [tazobactam]
- PPB (fb) [3]: 0.23

Compound: CC(Oc1ccc(F)cc1)C(=O)NC1C(=O)N2C1SC(C)(C)C2C(=O)O (stereo not drawn) [penicillin62]
- PPB (fb) [3]: 0.8

Compound: polythiazide
- PPB (fb) (plasma): 0.85

Compound: NC(=O)OC[C@@H]1[C@H](NC(=O)/C(=N\OCC(=O)O)c2csc(N)n2)C(=O)N1S(=O)(=O)O [Carumonam]
- PPB (fb) [1]: 0.28

Compound: NS(=O)(=O)c1cc2c(cc1C(F)(F)F)NC(Cc1ccccc1)NS2(=O)=O (stereo not drawn) [bendrofluazide]
- PPB (fb) [2]: 0.94

Compound: NC(=O)c1cnccn1 [Pyrazinamide]
- PPB (fb) [3]: 0.1

Compound: O=C1CN=C(c2ccccn2)c2cc(Br)ccc2N1 [Bromazepam]
- PPB (fb) (plasma): 0.61

Compound: CCc1nc(N)nc(N)c1-c1ccc(Cl)cc1 [Pyrimethamine]
- PPB (fb) [1]: 0.89

Compound: CC(C)N(CCC(C(N)=O)(c1ccccc1)c1ccccn1)C(C)C (stereo not drawn) [Disopyramide]
- PPB (fb) [1]: 0.87

Compound: CC(C)n1c(/C=C/C(O)CC(O)CC(=O)O)c(-c2ccc(F)cc2)c2ccccc21 (stereo not drawn) [Fluvastatin]
- PPB (fb) [1]: 0.99

Compound: COc1ccc([C@]2(C#N)CC[C@@H](C(=O)O)CC2)cc1OC1CCCC1 [Cilomilast]
- PPB (fb) [1]: 0.99

Compound: CNCCc1ccccn1 [betahistine]
- PPB (fb) [2]: 0.03

Compound: CC12CC3CC(C)(C1)CC(N)(C3)C2 [Memantine]
- PPB (fb) [3]: 0.45

Compound: CC[C@H]1OC(=O)[C@H](C)[C@@H](O[C@H]2C[C@@](C)(OC)[C@@H](O)[C@H](C)O2)[C@H](C)[C@@H](O[C@@H]2O[C@H](C)C[C@H](N(C)C)[C@H]2O)[C@](C)(O)C[C@@H](C)/C(=N\OCOCCOC)[C@H](C)[C@@H](O)[C@]1(C)O [roxithromycin]
- PPB (fb) [2]: 0.78

Compound: O=C1C(CC[S+]([O-])c2ccccc2)C(=O)N(c2ccccc2)N1c1ccccc1 (stereo not drawn) [Sulfinpyrazone]
- PPB (fb) [3]: 0.98

Compound: CC(C)(C#N)c1cc(Cn2cncn2)cc(C(C)(C)C#N)c1 [anastrozole]
- PPB (fb) [2]: 0.44

Compound: COc1ccc(-n2cc(C(=O)O)c(=O)c3cc(F)c(N4CCN(C)CC4)cc32)cc1 [5ca (p-OCH3__N-CH3)]
- PPB (fb) [2]: 0.43

Compound: CN(C)CCCN1c2ccccc2CCc2ccccc21 [Imipramine]
- PPB (fb) [1]: 0.9

Compound: Cc1nnc(NS(=O)(=O)c2ccc(N)cc2)s1 [sulfamethizole]
- PPB (fb) [3]: 0.9

Compound: CCOC(=O)Nc1ccc2c(c1)N(C(=O)CCN1CCOCC1)c1ccccc1S2 [moracizine]
- PPB (fb) [3]: 0.88

Compound: Gabapentin
- PPB (fb) (plasma): 0.02

Compound: CC1(C)O[C@@H]2C[C@H]3[C@@H]4CCC5=CC(=O)C=C[C@]5(C)[C@@]4(F)[C@@H](O)C[C@]3(C)[C@]2(C(=O)CO)O1 [Triamcinolone Acetonide]
- PPB (fb) [3]: 0.8

Compound: Atovaquone
- PPB (fb) (plasma): 1

Compound: CN(C)/N=N/c1[nH]cnc1C(N)=O [Dacarbazine]
- PPB (fb) [1]: 0.02

Compound: OC[C@H]1O[C@@H](n2cnc3c2NC=NC[C@H]3O)C[C@@H]1O [pentostatin]
- PPB (fb) [3]: 0.03

Compound: Cc1cc(=O)n(-c2ccccc2)n1C [Antipyrine]
- PPB (fb) (plasma): 0.07

Compound: CC/C=C/C/C=C/C/C=C/C/C=C/C=C/C(O)CCCC(=O)O (stereo not drawn) [hepe]
- PPB (fb) [3]: 0.99

Compound: Nc1cc(N2CCCCC2)nc(N)[n+]1[O-] [minoxidil]
- PPB (fb) [3]: 0.03

Compound: NCC[C@H](O)C(=O)N[C@@H]1C[C@H](N)[C@@H](O[C@H]2O[C@H](CN)[C@@H](O)[C@H](O)[C@H]2O)[C@H](O)[C@H]1O[C@H]1O[C@H](CO)[C@@H](O)[C@H](N)[C@H]1O [Amikacin]
- PPB (fb) [1]: 0.09

Compound: O=C1[C@@H]2[C@H]3CC[C@H](C3)[C@@H]2C(=O)N1CCCCN1CCN(c2ncccn2)CC1 [tandospirone]
- PPB (fb) [3]: 0.3

Compound: CCN[C@@H](C)Cc1cccc(C(F)(F)F)c1 [Dexfenfluramine]
- PPB (fb) (plasma): 0.34

Compound: Oc1ccc2c(c1)[C@@]13CCCC[C@@]1(O)[C@@H](C2)N(CC1CCC1)CC3 [Butorphanol]
- PPB (fb) (plasma): 0.81

Compound: COc1ccc(CC(C)NCC(O)c2ccc(O)c(NC=O)c2)cc1 (stereo not drawn) [formoterol]
- PPB (fb) (plasma): 0.62

Compound: Cc1c(Cl)cccc1Nc1ccccc1C(=O)O [tolfenamic acid]
- PPB (fb) [1]: 0.99

Compound: c1ccc(C2(N3CCCCC3)CCCCC2)cc1 [Phencyclidine]
- PPB (fb) (plasma): 0.68

Compound: O=C(CCCN1CCC(O)(c2ccc(Cl)cc2)CC1)c1ccc(F)cc1 [Haloperidol]
- PPB (fb) [1]: 0.92

Compound: CCN(CC)CCNC(=O)c1ccc(NC(C)=O)cc1 [Acecainide (N-acetylprocainamide)]
- PPB (fb) [1]: 0.1

Compound: CCc1cccc2c3c([nH]c12)C(CC)(CC(=O)O)OCC3 (stereo not drawn) [etodolac]
- PPB (fb) [3]: 0.99

Compound: C[C@]12CC[C@H]3[C@@H](CCC4=CC(=O)CC[C@@]43C)[C@@H]1CC[C@@H]2O [Testosterone]
- PPB (fb) (plasma): 0.6

Compound: O=C(O)c1cn(-c2cccc(O)c2)c2cc(N3CCNCC3)c(F)cc2c1=O [8b(m-OH)]
- PPB (fb) [2]: 0.35

Compound: CNc1nc(N(C)C)nc(N(C)C)n1 [pentamethylmelamine]
- PPB (fb) [3]: 0.75

Compound: COc1cccc(-n2cc(C(=O)O)c(=O)c3cc(F)c(N4CCNCC4)cc32)c1 [5b(m-OCH3)]
- PPB (fb) [2]: 0.35

Compound: CCN(CC)CCNC(=O)c1cc(S(C)(=O)=O)ccc1OC [tiapride]
- PPB (fb) [3]: 0

Compound: CC(=O)Nc1ccccc1 [acetanilide]
- PPB (fb) [2]: 0.07

Compound: CC(N/C(=N\C#N)Nc1ccncc1)C(C)(C)C (stereo not drawn) [pinacidil]
- PPB (fb) [2]: 0.4

Compound: Cc1nc2c([nH]1)-c1ccccc1N(C(=O)c1ccc(NC(=O)c3ccccc3-c3ccccc3)cc1)CC2 [Conivaptan]
- PPB (fb) [1]: 0.99

Compound: NCCCCCC(=O)O [Aminohexanoic acid]
- PPB (fb) [1]: 0.08

Compound: Cn1nnc2c(C(N)=O)ncn2c1=O [temozolomide]
- PPB (fb) [3]: 0.15

Compound: NC(=O)N1c2ccccc2CC(=O)c2ccccc21 [oxcarbazepine]
- PPB (fb) [3]: 0.45

Compound: NCCCNCCSP(=O)(O)O [amifostine]
- PPB (fb) [2]: 0.04

Compound: COc1ccc2c(C(=O)c3ccc(Cl)cc3)c(C)n(CC(=O)O)c2c1 [Clometacin]
- PPB (fb) (plasma): 0.99

Compound: COc1ccc2cc(CCC(C)=O)ccc2c1 [nabumetone]
- PPB (fb) [3]: 0.99

Compound: CCn1cc(C(=O)O)c(=O)c2cc(F)c(N3CCNCC3)nc21 [Enoxacin]
- PPB (fb) [1]: 0.26

Compound: CC1(C)SC2C(NC(=O)c3ccc4ccccc4c3)C(=O)N2C1C(=O)O (stereo not drawn) [penicillin65]
- PPB (fb) [3]: 0.96

Compound: O=P1(N(CCCl)CCCl)NCCCO1 (stereo not drawn) [Cyclophosphamide]
- PPB (fb) (plasma): 0.15

Compound: CCCCCNC(=N)N/N=C/c1c[nH]c2ccc(OC)cc12 [Tegaserod]
- PPB (fb) [3]: 0.98

Compound: NCC[C@H](O)C(=O)N[C@@H]1C[C@H](N)[C@@H](O[C@H]2O[C@H](CN)CC[C@H]2N)[C@H](O)[C@H]1O[C@H]1O[C@H](CO)[C@@H](O)[C@H](N)[C@H]1O [arbekacin]
- PPB (fb) [2]: 0.08
